Molecules are shown by their SMILES.

This assay addresses T1, CCR2 receptor (Homo sapiens, UniProt P41597).
T1 construct: host or cells: THP-1 human monocytic cell line
T1 sequence (P41597 1-360 isoform P41597-2): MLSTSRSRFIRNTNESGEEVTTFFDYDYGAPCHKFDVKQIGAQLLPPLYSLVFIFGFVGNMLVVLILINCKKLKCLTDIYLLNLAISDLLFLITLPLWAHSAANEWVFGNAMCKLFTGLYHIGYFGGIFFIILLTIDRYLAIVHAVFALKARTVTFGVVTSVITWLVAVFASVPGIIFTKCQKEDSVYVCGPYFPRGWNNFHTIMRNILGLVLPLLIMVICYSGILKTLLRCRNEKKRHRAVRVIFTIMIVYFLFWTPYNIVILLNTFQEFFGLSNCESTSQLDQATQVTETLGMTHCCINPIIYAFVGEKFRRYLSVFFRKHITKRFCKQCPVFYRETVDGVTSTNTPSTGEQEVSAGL
Put plainly: Inhibition of MCP-1 induced Ca-flux in human THP-1 cells. The assay is classed as cell-based. As to conditions: inhibition of specific MCP-1 (10^-7 M hMCP-1) induced Ca2+ flux in human THP-1 cells; pIC50 = -log IC50 (molar). On the procedure:
C. Pharmacological Example Inhibition of MCP-1 Induced Ca-flux in Human THP-1 Cells
MCP-1 binding to the CCR2 receptor induces a rapid and transient intracellular release of Ca^2+ (secondary messenger) in several cell lines (Charo et al, PNAS 1994). Free Ca^2+ levels can be measured using a Ca^2+ sensitive dye. When the CCR2 receptor is blocked with a CCR2 receptor antagonist, the MCP-1 induced release of Ca^2+ is inhibited.
Human THP-1 cells (monocytic cell line, ATCC TIB-202) were cultured in RPMI 1640 medium supplemented with 10% fetal calf serum (FCS), 1% L-Glutamine, penicillin (50 U/ml) and streptomycin (50 μg/ml) (all GIBCO BRL, Gent). After centrifugation, cells were loaded for 30 minutes with the Ca^2+ sensitive fluorescent dye Fluo-3 AM (Molecular Probes, Leiden, Netherlands) (2 million cells/ml in RPMI medium containing 4 μM Fluo-3 AM, 20 mM HEPES, 0.1% Bovine Serum Albumin (BSA) and 5 mM probenecid). Excess dye was removed by 3-fold washing with buffer (5 mM HEPES, 140 mM NaCl, 1 mM MgCl2, 5 mM KCl, 10 mM glucose, 2.5 mM probenecid, 1.25 mM CaCl2, 0.1% BSA; all further incubations were done in this buffer). Cells were plated at a density of 150 000 cells/well in dark-wall 96-well plates (Costar, Cambridge, Mass.) and sedimented by centrifugation (1 minute). The cells were pre-incubated for 20 minutes with test compound. Then, 10^−7 M hMCP-1 (Bachem, Bubendorf, Switserland) was added. Changes in intracellular free Ca^2+ concentration were measured using the Fluorescent Imaging Plate Reader (FLIPR, Molecular Devices, Munchen, Germany). Fluorescence was recorded every second from 10 seconds before the addition of the MCP-1 till 2 minutes after the addition (first minute: 60 records with 1 second intervals, second minute 20 records with 3 second intervals).
The maximal fluorescence obtained during this time frame was used for further calculations.
Table 4 reports pIC50 values obtained in the above-described test for compounds of formula (I). pIC50 defines −log IC50 wherein IC50 is the molar concentration of the test compound which inhibits 50% of specific MCP-1 induced Ca^2+ flux.
As to `CCC(c1ccc(F)c(C(F)(F)F)c1)n1c(C(=O)OC)cnc1S` (centres unmarked) [Compound 1], half-maximal inhibition (IC50) was put at 933 nM. The molecule `COC(=O)c1c[nH]c(=S)n1C(c1ccc(Cl)c(Cl)c1)C1CC1` (centres unmarked) [Compound 2] had an IC50 of 2140 nM. With `CCC(c1ccc(F)c(C(F)(F)F)c1)n1c(S)nc(C(=O)OC)c1C(=O)OC` (centres unmarked) [Compound 3], 17.4 nM corresponded to half-maximal inhibition (IC50).

Take `COC(=O)c1[nH]c(=S)n(C(c2ccc(Cl)c(Cl)c2)C2CC2)c1C(=O)OC` (centres unmarked) [Compound 4]: the IC50 is 27.9 nM.

With `CCC(c1ccc(Cl)c(Cl)c1)n1c(C#N)c(C(=O)OC)[nH]c1=S` (centres unmarked) [Compound 5], the IC50 was 39.8 nM. The figure for `CCC(c1ccc(Cl)c(Cl)c1)n1c(C(=O)OC)c(C)[nH]c1=S` (centres unmarked) [Compound 6] is 263 nM; for `CCC(c1ccc(Cl)c(Cl)c1)n1c(C#N)cnc1S` (centres unmarked) [Compound 7] it is 700 nM; for `CCC(c1ccc(Cl)c(Cl)c1)n1c(C(N)=O)cnc1S` (centres unmarked) [Compound 8] it is 35 nM. `CCC(c1ccc(F)c(F)c1)n1c(C(N)=O)cnc1S` (centres unmarked) [Compound 9] had an IC50 of 465 nM.

In turn, `CCC(c1ccc(F)c(C(F)(F)F)c1)n1c(C(N)=O)cnc1S` (centres unmarked) [Compound 10] gave an IC50 of 204 nM. Take `CCOC(=O)c1cnc(S)n1C(CC)c1ccc(F)c(C(F)(F)F)c1` (centres unmarked) [Compound 12]: the IC50 is 347 nM. Molecule `CCC(c1ccc(Cl)c(Cl)c1)n1cc(C(=O)OC)nc1S` (centres unmarked) [Compound 14] had an IC50 of 355 nM. For `CCC(c1ccc(Cl)c(Cl)c1)n1c(C(=O)OC)cnc1S` (centres unmarked) [Compound 15] the value was 191 nM; for `CC[C@H](c1ccc(Cl)c(Cl)c1)n1c(C(=O)OC)cnc1S` [Compound 16], 1020 nM. `CC[C@@H](c1ccc(Cl)c(Cl)c1)n1c(C(=O)OC)cnc1S` [Compound 17] showed an IC50 of 87.1 nM.

Molecule `CCC(c1ccc(Cl)c(Cl)c1)n1c(S)nc(C(N)=O)c1C#N` (centres unmarked) [Compound 19] gave an IC50 of 120 nM. Regarding `CCC(c1ccc(Cl)c(Cl)c1)n1c(S)nc(C(N)=O)c1C(N)=O` (centres unmarked) [Compound 20], it took 56.9 nM to reach half-maximal inhibition (IC50). As to `CCC(c1ccc(F)c(F)c1)n1c(C(=O)OC)cnc1S` (centres unmarked) [Compound 21], the IC50 is 1020 nM. In turn, `CCC(c1ccc(Cl)c(Cl)c1)n1c(C(=O)O)cnc1S` (centres unmarked) [Compound 23] gave an IC50 of 3310 nM. Consider `CCCC(c1cccc(Cl)c1)n1c(C(=O)OC)c[nH]c1=S` (centres unmarked) [Compound 24], for which 891 nM corresponded to half-maximal inhibition (IC50). For `CCCC(c1ccc(Cl)cc1)n1c(C(=O)OC)c[nH]c1=S` (centres unmarked) [Compound 25], the IC50 was 3550 nM. For `COC(=O)c1c[nH]c(=S)n1C(C)c1ccc(Cl)cc1` (centres unmarked) [Compound 31] the value was 3720 nM; for `COC(=O)c1cnc(S)n1C(C)c1ccc(Cl)c(Cl)c1` (centres unmarked) [Compound 32], 257 nM.

Turning to `CCC(c1ccc(Cl)c(Cl)c1)n1c(C(=O)OC(C)C)cnc1S` (centres unmarked) [Compound 33], the IC50 is 263 nM. In turn, `CCC(c1ccc(Cl)c(Cl)c1)n1c(C(=O)NC)cnc1S` (centres unmarked) [Compound 34] gave an IC50 of 219 nM.

Regarding `CCCC(c1ccc(Cl)c(Cl)c1)n1c(C(=O)OC)cnc1S` (centres unmarked) [Compound 35], 138 nM corresponded to half-maximal inhibition (IC50). The molecule `CCC(c1ccc(F)c(F)c1)n1c(C(=O)NC)cnc1S` (centres unmarked) [Compound 36] gave an IC50 of 2240 nM.

`CCC(c1ccc(Cl)c(Cl)c1)n1c(S)nc(C(=O)OC)c1C(=O)OC` (centres unmarked) [Compound 37] gave an IC50 of 9.68 nM. For `CCC(c1ccc(F)c(F)c1)n1c(S)nc(C(=O)OC)c1C(=O)OC` (centres unmarked) [Compound 39] the value was 7.24 nM; for `CCC(c1ccc(Cl)c(Cl)c1)n1c(C(=O)O)c(C(=O)O)[nH]c1=S` (centres unmarked) [Compound 40], 1380 nM; for `CCC(c1ccc(C(F)(F)F)c(F)c1)n1c(C(=O)OC)cnc1S` (centres unmarked) [Compound 43], 2000 nM. `CCCCNC(=O)c1cnc(S)n1C(CC)c1ccc(F)c(F)c1` (centres unmarked) [Compound 44] showed an IC50 of 3130 nM.

In turn, `CCC(c1ccc(F)c(F)c1)n1c(C(=O)NCC(C)C)cnc1S` (centres unmarked) [Compound 45] gave a 50% inhibitory concentration (IC50) of 2480 nM. On to `COC(=O)c1[nH]c(=S)n(Cc2ccc(Cl)c(Cl)c2)c1C(=O)OC` [Compound 47], for which the IC50 is 35.5 nM. `CCC(c1ccc(C(F)(F)F)c(F)c1)n1c(S)nc(C(=O)OC)c1C(=O)OC` (centres unmarked) [Compound 48] had an IC50 of 89.1 nM. For `CCC(c1ccc(F)c(C(F)(F)F)c1)n1c(C(=O)NC)c[nH]c1=S` (centres unmarked) [Compound 49] the value was 2290 nM; for `CCC(c1ccc(Cl)c(Cl)c1)n1cc(C(N)=O)[nH]c1=S` (centres unmarked) [Compound 51], 1780 nM. `CCC(c1ccc(Cl)c(Cl)c1)n1cc(C(=O)NC)[nH]c1=S` (centres unmarked) [Compound 52]: the midpoint of inhibition, the IC50, lay at 8130 nM. With `CC(c1ccc(Cl)c(Cl)c1)n1c(C(N)=O)c[nH]c1=S` (centres unmarked) [Compound 54], the IC50 is 1100 nM.

`COC(=O)c1[nH]c(=S)n(C(C)c2ccc(Cl)c(Cl)c2)c1C(=O)OC` (centres unmarked) [Compound 55] gave an IC50 of 12.6 nM. Take `COC(=O)c1[nH]c(=S)n(C(c2ccccc2)c2ccc(Cl)c(Cl)c2)c1C(=O)OC` (centres unmarked) [Compound 56]: the IC50 was 203 nM. In turn, `CCC(c1ccc(Br)c(Br)c1)n1c(C(N)=O)c(C(N)=O)[nH]c1=S` (centres unmarked) [Compound 57] showed an IC50 of 168 nM. Molecule `CCC(c1ccc(Cl)c(Cl)c1)n1c(C(N)=O)cnc1S` (centres unmarked) [Compound 59] showed an IC50 of 43.4 nM. As for `CCC(c1ccc(F)c(C(F)(F)F)c1)n1c(C(=O)OCCO)cnc1S` (centres unmarked) [Compound 61], the IC50 was 229 nM. The molecule `CCC(c1ccc(F)c(C(F)(F)F)c1)n1c(C(=O)OCC(=O)N(CC)CC)c[nH]c1=S` (centres unmarked) [Compound 62] showed an IC50 of 1020 nM. On to `CCC(c1ccc(Cl)c(Cl)c1)n1cc(C(=O)OCCO)[nH]c1=S` (centres unmarked) [Compound 63], for which it took 1020 nM to reach half-maximal inhibition (IC50). `CCC(c1ccc(F)c(C(F)(F)F)c1)n1c(C(=O)O)c[nH]c1=S` (centres unmarked) [Compound 67] showed an IC50 of 2340 nM. `CCC(c1ccc(Cl)c(Cl)c1)n1c(S)nc(C(=O)O)c1C(=O)OC` (centres unmarked) [Compound 68]: the IC50 was 841 nM. `CCCC(c1ccc(Cl)c(Cl)c1)n1c(C(=O)NC)c(C(=O)NC)[nH]c1=S` (centres unmarked) [Compound 69] showed an IC50 of 394 nM. As for `CCC(c1ccc(Cl)c(Cl)c1)n1c(C#N)c(C(=O)NC)[nH]c1=S` (centres unmarked) [Compound 70], it took 257 nM to reach half-maximal inhibition (IC50). `COC(=O)c1[nH]c(=S)n(C(c2ccc(Cl)c(Cl)c2)C2CCCCC2)c1C(=O)OC` (centres unmarked) [Compound 73] gave an IC50 of 440 nM. The figure for `CCC(c1ccc(Br)c(Br)c1)n1c(C(=O)O)c[nH]c1=S` (centres unmarked) [Compound 74] is 3390 nM.

For the molecule `CCOC(=O)c1c(C)[nH]c(=S)n1C(CC)c1ccc(Cl)c(Cl)c1` (centres unmarked) [Compound 75], the IC50 is 263 nM. In the case of `CCC(c1ccc(Br)c(Br)c1)n1c(C(=O)OC)cnc1S` (centres unmarked) [Compound 76], the midpoint of inhibition, the IC50, lay at 257 nM. For the molecule `O=c1[nH][nH]c(=O)c2c1[nH]c(=S)n2C(c1ccc(Cl)c(Cl)c1)C1CC1` (centres unmarked) [Compound 77], the IC50 was 331 nM. Take `COC(=O)c1cnc(S)n1C(C)(C)c1ccc(Cl)c(Cl)c1` [Compound 80]: the IC50 was 4790 nM.

Molecule `CCC(c1ccc(Cl)c(Cl)c1)n1c(C(C)=O)c[nH]c1=S` (centres unmarked) [Compound 81] showed an IC50 of 132 nM. As to `CCC(c1ccc(Cl)c(Cl)c1)n1c(S)nc(CO)c1C(=O)OC` (centres unmarked) [Compound 85], the IC50 is 153 nM. With `CCC(c1ccc(Cl)c(Cl)c1)n1c(S)nc(C(N)=O)c1C(=O)OC` (centres unmarked) [Compound 86], the IC50 is 49.9 nM.
